Data: US20080004276A1, “Method for treating non-hodgkin's lymphoma” (priority 2006, published 2008)
pIC50: −log10 of the molar value. Entries after “also recorded” stand apart in the source; their conditions may differ.

Experiments:
[1] = system: Daudi; assay: Daudi non-Hodgkin's lymphoma SCID mouse xenograft; assay type: in vivo; conditions: 25 mg/kg i.v., 5 times per week, 15 doses
Description: FBS was obtained from ATCC and all other reagents were obtained from Invitrogen Corp. (Carlsbad, Calif., USA). Cells that had been cryopreserved in liquid nitrogen were rapidly thawed at 37° C. and transferred to a tissue culture flask containing growth media and then incubated at 37° C. in a 5% CO2 incubator. To expand the cell line, cultures were passaged 1:2 to a density of 5×10(6) cells/ml every three days by adding an equal volume of fresh growth media. When the flasks reached a density of approximately 10×10(6) cells/ml, the above passaging process was repeated until sufficient cells had been obtained for implantation into mice.
(§1) Seven to eight week old, female CB17/Icr-Prkdc^scid/Crl (SCID) mice were obtained from Charles River Laboratories (Wilmington, Mass., USA). Animals were housed 4-5/cage in micro-isolators, with a 12 hr/12 hr light/dark cycle, acclimated for at least 1 week prior to use and fed normal laboratory chow ad libitum. Studies were conducted on animals that were between 8 and 12 weeks of age at the time of tumor cell implantation. […] Using a 27 gauge needle and 1 cc syringe, 0.1 ml of the cell suspension was injected subcutaneously into the shaved flanks of SCID mice. To implant SU-DHL-4 tumor cells into SCID mice, cell cultures were centrifuged to pellet the cells, the supernatant was aspirated and the cell pellet was resuspended in 10 ml of growth media and the cell number determined using a hemocytometer, washed in PBS and resuspended at a concentration of 10×10(7) cells/ml in 50% PBS and 50% Matrigel Basement Membrane Matrix (#354234; BD Biosciences; Bedford, Mass., USA). Using a 27 gauge needle and 1 cc syringe, 0.1 ml of the cell suspension was injected subcutaneously into the shaved flanks of SCID mice.
Tumors were then permitted to develop in vivo until the majority reached 100-200 mm^3 in tumor volume, which typically required 2-3 weeks following implantation. […] Tumor volumes (V) were calculated by caliper measurement of the width (W), length (L) and thickness (T) of tumors using the following formula: V=0.5236×(L×W×T). […]

[2] = system: SU-DHL-4; assay: SU-DHL-4 non-Hodgkin's lymphoma SCID mouse xenograft; assay type: in vivo; conditions: for % T/C value: FIG. 6
Description: The human non-Hodgkin's lymphoma tumor cell line, SU-DHL-4 (DSMZ #ACC 495), sub-classified as a GCB-type diffuse large B-cell lymphoma, was obtained from Deutsche Sammlung von Mikroorganismen und Zellkulturen GmbH (DSMZ; Braunschweig, Germany). […] FBS was obtained from ATCC and all other reagents were obtained from Invitrogen Corp. (Carlsbad, Calif., USA). Approximately 3-4×10(7) cells that had been cryopreserved in liquid nitrogen were rapidly thawed at 37° C. and transferred to a 175 cm^2 tissue culture flask containing 50 ml of growth media and then incubated at 37° C. in a 5% CO2 incubator. To passage and expand the cell line, the contents of a flask were centrifuged to pellet the cells, the supernatant was aspirated and the cell pellet was resuspended in 10 ml of growth media and the cell number determined using a hemocytometer. Approximately 3-4×10(7) cells per flask were seeded into 175 cm^2 flasks containing 50 ml of growth media and incubated at 37° C. in a 5% CO2 incubator. The above passaging process was repeated every 2-3 days until sufficient cells had been obtained for implantation into mice.
as §1
Tumors were then permitted to develop in vivo until the majority reached 100-200 mm^3 in tumor volume, which typically required 2-3 weeks following implantation. […] Tumor volumes (V) were calculated by caliper measurement of the width (W), length (L) and thickness (T) of tumors using the following formula: V=0.5236×(L×W×T). Animals were randomized into treatment groups so that the median tumor volumes of each group were similar at the start of dosing. % T/C values, as a measure of efficacy, were determined as follows: • (i) If ΔT>0: % T/C=(ΔT/ΔC)×100 • (ii) If ΔT<0: % T/C=(ΔT/T0)×100 • (iii) ΔT=Change in median tumor volume between start of dosing and the end of study. • (iv) ΔC=Change in median tumor volume between start of dosing and the end of study. • (v) T0=Median tumor volume at start of dosing.
To formulate Compound #226 in DRD, stock solutions of the test article were prepared by dissolving the appropriate amounts of the compound in dimethyl sulfoxide (DMSO) by sonication in an ultrasonic water bath. Stock solutions were prepared weekly, stored at −20° C. and diluted fresh each day for dosing. A solution of 20% Cremophore RH40 (polyoxyl 40 hydrogenated castor oil; BASF Corp., Aktiengesellschaft, Ludwigshafen, Germany) in 5% dextrose in water (Abbott Laboratories, North Chicago, Ill., USA) was also prepared by first heating 100% Cremophore RH40 at 50-60° C. until liquefied and clear, diluting 1:5 with 100% D5W, reheating again until clear and then mixing well. This solution was stored at room temperature for up to 3 months prior to use. To prepare DRD formulations for daily dosing, DMSO stock solutions were diluted 1:10 with 20% Cremophore RH40. […]

[3] = system: Her2; assay: IC50 range for inhibition of Her2 degradation (Table 8); assay type: cell-based; conditions: Homo sapiens
Description: Human high-Her2 breast carcinoma BT474 (HTB-20), SK-BR-3 (HTB-30) and MCF-7 breast carcinoma (HTB-22) from American Type Culture Collection, VA, USA were grown in Dulbecco's modified Eagle's medium with 4 mM L-glutamine and antibiotics (100 IU/ml penicillin and 100 ug/ml streptomycine; GibcoBRL). To obtain exponential cell growth, cells were trypsinized, counted and seeded at a cell density of 0.5×10^6 cells/ml regularly, every 3 days. All experiments were performed on day 1 after cell passage. […]
After treatment with a compound of the invention, cells were washed twice with 1×PBS/1% FBS, and then stained with anti-Her2-FITC (#340553, BD) for 30 min at 4° C. Cells were then washed three times in FACS buffer before the fixation in 0.5 ml 1% paraformadehydrede. Data was acquired on a FACSCalibur system. Isotype-matched controls were used to establish the non-specific staining of samples and to set the fluorescent markers. A total 10,000 events were recorded from each sample. Data were analysed by using CellQuest software (BD Biosciences).

pIC50 [3]	SMILES	further results
	CC(C)c1cc(-c2nnc(O)n2-c2ccc3c(ccn3C)c2)c(O)cc1O [Compound 226, 3-(2,4-dihydroxy-5-isopropyl-phenyl)-4-(1-methyl-indol-5-yl)-5-hydroxy-[1,2,4] triazole]	overt toxicity ([1]; SCID mice): not associated with overt toxicity; also recorded: Overt toxicity was not observed; % T/C value ([1]; SCID mice, FIG. 5): 1.5%; average bodyweight loss relative to the start of the study ([1]; day 41 / over the course of the study): −1.0%; % T/C value ([2]; 50 mg/kg i.v., 2 times per week, 4 doses, SCID mice): 34.9%; % T/C value ([2]; 75 mg/kg i.v., 2 times per week, 4 doses, SCID mice): 8.1%; % T/C value ([2]; 100 mg/kg i.v., 2 times per week, 4 doses, SCID mice): −10.4%; overt toxicity ([2]; 50, 75 and 100 mg/kg i.v., 2 times per week, 4 doses, SCID mice): not associated with overt toxicity; also recorded: Overt toxicity was not observed; average bodyweight loss relative to the start of the study ([2]; highest dose group 100 mg/kg i.v., 2 times per week, 4 doses, day 31): −4.2%; average bodyweight loss ([2]; over the course of the study, dose not stated (text on FIG. 6)): −1.0%
4.00 to 5.00	Oc1nc(O)c(-c2nnc(S)n2-c2cccc3ccccc23)cc1F [Compound 62, 3-(2,6-Dihydroxy5-fluoro-pyridin-3-yl) 4-(naphthalen-1-yl)-5-mercapto-triazole]	
5.00 to 5.52	Oc1ccc(-c2nnc(S)n2-c2ccc(Cl)c3ccccc23)c(O)c1 [Compound 48, 3-(2,4-Dihydroxyphenyl)-4-(4-chloronaphthalen-1-yl)-5-mercapto-triazole]	
5.00 to 5.52	CCCOc1ccc2c(-n3c(S)nnc3-c3ccc(O)cc3O)cccc2c1 [Compound 7]	
> 5.52	CCc1cc(-c2nnc(S)n2-c2ccc(OC)c(N(CC)CC)c2)c(O)cc1O [Compound 247, 4-(4-(3-(diethylamino)-4-methoxyphenyl)-5-mercapto-4H-1,2,4-triazol-3-yl)-6-ethylbenzene-1,3-diol]	
> 5.52	CCc1cc(-c2nnc(S)n2-c2ccc3c(c2)c(C)c(C)n3C)c(O)cc1O [Compound 103, 3-(2,4-Dihydroxy-5-ethyl-phenyl)-4-(1,2,3-trimethyl-indol-5-yl)-5-mercapto-triazole]	
4.00 to 5.00	CCc1cc(-c2n[nH]c(O)c2-c2cccc3ccccc23)c(O)cc1O [Compound 348, 4-(naphthalen-1-yl)-3-(5-ethyl-2,4-dihydroxy-phenyl)-5-hydroxy-2H-pyrazole]	
4.00 to 5.00	Cn1cc(-c2nnc(S)n2-c2cccc3ccccc23)c(O)cc1=O [Compound 60]	
4.00 to 5.00	CC(C)(C)c1cc(-n2c(S)nnc2-c2ccc(O)cc2O)cc(C(C)(C)C)c1 [Compound 61, 3-(2,4-Dihydroxy-phenyl)-4-(3,5-di-tert-butylphenyl)-5-mercapto-triazole]	
> 5.52	Oc1cc(O)c(C2CC2)cc1-c1nnc(S)n1-c1cccc2ccccc12 [Compound 189, 3-(2,4-Dihydroxy-5-cyclopropyl-phenyl)-4-(naphthalene-1-yl)-5-mercapto-triazole]	
> 5.52	COc1cc(-c2nnc(S)n2-c2cccc3ccccc23)c(O)cc1O [Compound 177, 3-(2,4-Dihydroxy-5-methoxy-phenyl)-4-(naphthalen-1-yl)-5-mercapto-triazole]	
> 5.52	Oc1ccc(-c2nnc(S)n2-c2cccc3[nH]ccc23)c(O)c1 [Compound 95, 3-(2,4-Dihydroxy-phenyl)-4-(indol-4-yl)-5-mercapto-triazole]	
5.00 to 5.52	Oc1ccc(-c2nnc(S)n2-c2cccc(Cl)c2Cl)c(O)c1 [Compound 38, 3-(2,4-Dihydroxyphenyl)-4-(2,3-dichlorophenyl)-5-mercapto-triazole]	
> 5.52	CCc1cc(-c2nnc(S)n2-c2ccc(OC)c3ccccc23)c(O)cc1O [Compound 76, 3-(2,4-Dihydroxy-5-ethyl-phenyl)-4-(4-methoxy-naphthalen-1-yl)-5-mercapto-triazole]	
4.00 to 5.00	O=C(O)c1cc(O)c(-c2nnc(S)n2-c2cccc3ccccc23)cc1O [Compound 99, 3-(2,5-Dihydroxy-4-carboxy)-4-(naphthalen-1-yl)-5-mercapto-triazole]	
> 5.52	CCc1cc(-c2nnc(S)n2-c2cccc(N(C)C)c2)c(O)cc1O [Compound 252, 4-(4-(3-(dimethylamino)phenyl)-5-mercapto-4H-1,2,4-triazol-3-yl)-6-ethylbenzene-1,3-diol]	
